Results reported in PMC6138639, “The ZZ-type zinc finger of ZZZ3 modulates the ATAC complex-mediated histone acetylation and gene activation” (Nature Communications, 2018).
Substitutions are numbered along the chain they refer to.

Key:
ZZZ3 ZZ domain D824A = target: T1, ZZZ3 ZZ domain D824A (Homo sapiens, UniProt Q8IYH5, D824A); assay: 1H,15N HSQC NMR titration of ZZZ3 ZZ D824A mutant with histone peptides; assay type: binding; conditions: measured by NMR (1H,15N HSQC titration); 0.1 mM 15N-labeled protein; 298 K
T1 construct: GST (N, cleaved yes); made in house; host or cells: E. coli BL21 (DE3) RIL
T1 sequence (Q8IYH5 818-877 D824A limits assumed): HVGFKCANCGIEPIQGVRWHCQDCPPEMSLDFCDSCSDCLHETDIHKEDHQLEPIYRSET
Experimental: (§1) In total, 0.1 mM uniformly ^15N-labeled WT or mutated ZZZ3-ZZ was used in NMR titrations. Binding was characterized by monitoring chemical shift changes in the proteins induced by histone peptides (synthesized by SynPeptide). Dissociation constant (Kd) was determined by applying PCA to the ^1H,^15N HSQC titration spectra in TREND[30]. Each binding isotherm was fitted using the following equation: pbound=∣∣PC1∣∣=L+P+Kd-L+P+Kd^2-4[P][L]/2[P] where [L] is the concentration of the histone peptide, [P] is the concentration of ZZ, pbound is the fraction of protein bound to a ligand, and PC1 is the normalized principal component, obtained by TREND, that indicates the change in the population of the bound state. The errors of the Kd value are the fitting uncertainties from nonlinear least-squares fits in Kaleidagraph.

[1] = target: T2, ZZZ3 ZZ domain (aa 800–903), WT (Homo sapiens, UniProt Q8IYH5); assay: Tryptophan fluorescence binding of histone peptides to WT ZZZ3 ZZ domain; conditions: for Kd: 1.0 µM ZZZ3 ZZ (aa 800–903), 25 °C, 20 mM Tris–HCl pH 7.2, 150 mM NaCl, 1 mM DTT, mean ± SD of three experiments
T2 construct: The samples containing 1.0 µM ZZZ3 ZZ (aa 800–903); GST (N, cleaved yes); made in house; host or cells: E. coli BL21 (DE3) RIL
T2 sequence (Q8IYH5 800-903): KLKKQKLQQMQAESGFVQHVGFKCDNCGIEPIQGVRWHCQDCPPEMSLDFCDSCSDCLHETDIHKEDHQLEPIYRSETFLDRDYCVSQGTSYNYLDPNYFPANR
Experimental: Spectra were recorded at 25 °C on a Fluoromax-3 spectrofluorometer (HORIBA). The samples containing 1.0 µM ZZZ3 ZZ (aa 800–903) and progressively increasing concentrations of the histone peptide were excited at 295 nm. Experiments were performed in buffer containing 20 mM Tris–HCl (pH 7.2), 150 mM NaCl, and 1 mM DTT, with the exception of experiments shown in Supplementary Fig. 3b, which were performed in 100 mM NaCl buffer. Emission spectra were recorded over a range of wavelengths between 330 and 360 nm with a 0.5-nm step size and a 1-s integration time and averaged over three scans. The Kd values were determined using a nonlinear least-squares analysis and the equation: ΔI=ΔImaxL+P+Kd-L+P+Kd^2-4[P][L]/2[P] where [L] is the concentration of the histone peptide, [P] is the concentration of ZZZ3 ZZ domain, ΔI is the observed change of signal intensity, and ΔImax is the difference in signal intensity of the free and bound states of the ZZ domain. The Kd value was averaged over three separate experiments, with error calculated as the standard deviation between the runs.

[2] = target: T3, ZZZ3 ZZ domain (a.a. 800–903) (Homo sapiens, UniProt Q8IYH5); assay: Microscale thermophoresis (MST) displacement binding assay; conditions: displacement of 80 nM fluorescein-labeled H3 (1–12) from 5 μM ZZ by unlabeled peptide; 20 mM Tris–HCl pH 7.0, 150 mM NaCl, 3 mM DTT; H3 triplicates, H3K4ac duplicates
T3 construct: The samples containing 1.0 µM ZZZ3 ZZ (aa 800–903); GST (N, cleaved yes); made in house; host or cells: E. coli BL21 (DE3) RIL
T3 sequence (Q8IYH5 800-903): T2 sequence (Q8IYH5 800-903)
Experimental: The MST experiments were performed using a Monolith NT.115 instrument (NanoTemper) as described previously. All experiments were performed with the purified ZZ domain (a.a. 800-903) in a buffer containing 20 mM Tris-HCl (pH 7.0), 150 mM NaCl, and 3 mM DTT. The final concentration of the C-terminal fluorescein-labeled histone H3 peptide (1-12, KE BIOCHEM) was kept at 80 nM. Dissociation constants for the interaction between ZZ with unlabeled peptides H3 (1-12) and H3K4ac (1-12) were measured using a displacement assay in which increasing amounts of unlabeled peptides were added into a preformed ZZ:H3-FAM complex prepared by supplementing 5 μM ZZ into each sample. The measurements were performed at 50% LED and 40% MST power with 3-s laser on time and 22 s off time. For all measurements, samples were loaded into premium capillaries and 1400-1700 counts were obtained for the fluorescence intensity. The Kd and IC50 values were determined with the MO.Affinity Analysis software (NanoTemper Technologies GmbH), using two independent MST measurements. […] The Kd value is the dissociation constant of labeled H3 peptide determined in the direct binding experiment described above. […]

ZZZ3 ZZ domain D848A = target: T4, ZZZ3 ZZ domain D848A (Homo sapiens, UniProt Q8IYH5, D848A); assay: 1H,15N HSQC NMR titration of ZZZ3 ZZ D848A mutant with histone peptides; assay type: binding; conditions: measured by NMR (1H,15N HSQC titration); 0.1 mM 15N-labeled protein; 298 K
T4 construct: GST (N, cleaved yes); made in house; host or cells: E. coli BL21 (DE3) RIL
T4 sequence (Q8IYH5 818-877 D848A limits assumed): T1 sequence (Q8IYH5 818-877 D824A limits assumed) with A7D, D31A
Experimental: as §1

ZZZ3 ZZ domain = target: T5, ZZZ3 ZZ domain (Homo sapiens, UniProt Q8IYH5); assay: Binding of non-H3-like peptide to ZZZ3 ZZ domain (Supplementary Fig. 2i); conditions: N-terminal Ala1 added to a non-H3-like peptide
T5 construct: made in house; host or cells: E. coli BL21 (DE3) RIL
T5 sequence (Q8IYH5 818-877 limits assumed): T1 sequence (Q8IYH5 818-877 D824A limits assumed) with A7D

ATAC complex = target: T6, ATAC complex (Homo sapiens, UniProt Q8IYH5); assay: In vitro HAT assay of purified ATAC complex with histone peptides or mononucleosomes; assay type: biochemical; conditions: 1 μg peptide, 0.1 mM acetyl-CoA, 37 °C, western blot
T6 construct: expressed in transfected cells; nuclear extract, M2-agarose, eluted with triple-FLAG peptide
Experimental: Nuclear extracts were prepared from stable cells using a standard protocol. Briefly, approximately 2 mg of nuclear extract was incubated with 25 µl of M2-agarose beads (Sigma) overnight at 4 °C. The beads were washed four times with high-salt wash buffer (10 mM HEPES, pH 7.9, 25% glycerol, 1.5 mM MgCl2, 300 mM KCl, and 0.1% Triton X-100), followed by two washes with low-salt wash buffer (10 mM HEPES, pH 7.9, 25% glycerol, 1.5 mM MgCl2, 100 mM KCl, and 0.1% Triton X-100). Elution was achieved by two consecutive incubations of the beads with 0.5 mg/ml triple-FLAG peptide (Sigma) in 200 µl of low-salt wash buffer. All buffers contained phenylmethylsulfonyl fluoride and protease inhibitor cocktail (Roche).
Purified complexes were incubated for indicated times at 37 °C with peptides (1 μg) or mononucleosomes (10 μg) and 0.1 mM acetyl-CoA in HAT reaction buffer (50 mM Tris, pH 8.0, 0.1 mM EDTA, 10% glycerol, 1 mM PMSF, and 1 mM DTT) in a total volume of 50 μL. Reactions were quenched by flash-freezing in liquid nitrogen and then analyzed by SDS-PAGE and western blot. Uncropped western blots are shown in Supplementary Figure 11.

Compound | Kd, ZZZ3 ZZ domain D824A (ZZZ3 ZZ domain D824A) | Kd [1] [µM] | Kd [2] [µM] | HAT activity of the ATAC complex on the peptide substrate (ATAC complex) | further results
CC(=O)NCCCC[C@H](NC(=O)[C@@H](NC(=O)[C@H](CCCNC(=N)N)NC(=O)[C@H](C)N)[C@@H](C)O)C(=O)N[C@@H](CCC(N)=O)C(=O)N[C@H](C(=O)N[C@@H](C)C(=O)N[C@@H](CCCNC(=N)N)C(=O)N[C@@H](CCCCN)C(=O)N[C@@H](CO)C(=O)N[C@H](C(=O)NCC(=O)O)[C@@H](C)O)[C@@H](C)O [H3K4ac] | No binding | 8.2 | 5.5 |  | Fold enhancement of ZZ association over the unmodified H3 peptide ([1]; Kd 8.2 μM versus 29 μM): ~ 3 fold
C[C@H](N)C(=O)N[C@@H](CCCNC(=N)N)C(=O)N[C@H](C(=O)N[C@@H](CCCC[N+](C)(C)C)C(=O)N[C@@H](CCC(N)=O)C(=O)N[C@H](C(=O)N[C@@H](C)C(=O)N[C@@H](CCCNC(=N)N)C(=O)N[C@@H](CCCCN)C(=O)N[C@@H](CO)C(=O)N[C@H](C(=O)NCC(=O)O)[C@@H](C)O)[C@@H](C)O)[C@@H](C)O [H3K4me3] |  |  |  |  | Kd ([1]; SD): 22 ± 6 µM
C[C@H](N)C(=O)N[C@@H](CCCNC(=N)N)C(=O)N[C@H](C(=O)N[C@@H](CCCCN)C(=O)N[C@@H](CCC(N)=O)C(=O)N[C@H](C(=O)N[C@@H](C)C(=O)N[C@@H](CCCNC(=N)N)C(=O)N[C@@H](CCCCN)C(=O)N[C@@H](CO)C(=O)N[C@H](C(=O)NCC(=O)O)[C@@H](C)O)[C@@H](C)O)[C@@H](C)O [H3] | No binding | 29 | 18 |  | Kd, ZZZ3 ZZ domain D848A (ZZZ3 ZZ domain D848A): No binding
AGSGSG [non-H3-like peptide with an added N-terminal Ala1] |  |  |  |  | Binding to the ZZZ3 ZZ domain (ZZZ3 ZZ domain): insufficient to bind
H3 (3–33): biotinylated histone H3 peptide lacking the first two amino acids, HAT substrate |  |  |  | abolishes the HAT activity | 
Lys4-acetylated H3 peptide: Lys4-acetylated H3 (1-22) peptide used as HAT substrate |  |  |  | better substrate | 
